Assay results: paper PMC9312958, “A Novel and Selective Dopamine Transporter Inhibitor, (S)-MK-26, Promotes Hippocampal Synaptic Plasticity and Restores Effort-Related Motivational Dysfunctions” (Biomolecules, 2022)

Assays:
[1] = tested on: adult male Sprague Dawley rats; experiment: PROG/chow feeding choice task; format: in vivo, rat
Method: Pharmacological agents: (S)-MK-26 was obtained from the Lubec Laboratory (University of Vienna, Austria) and dissolved in dimethyl sulfoxide (DMSO) (10%), Tween 80 (15%), and 0.9% saline (75%). The DMSO/Tween 80/saline mixture was administered as the vehicle control. The dose range was selected as 3.75–45.0 mg/kg based on its DAT affinity and pilot studies. It was administered 30 min before testing. TBZ (9,10-dimethoxy3-(2-methylpropyl)-1,3,4,6,7, 11b hexahydrobenzo[a]quinolizin2-one) was obtained from Tocris Bioscience (Ellisville, MO) and was dissolved in DMSO (20%) and 0.9% saline (80%) and was titrated with 1.0 N HCl until the drug was dissolved at a pH of 4.0–4.5. The DMSO/saline solution with equal amounts of HCl was administered as the vehicle control. The selected dose was 1.0mg/kg based on the previous research from our laboratory. It was administered 120 min prior to testing. […]
Behavioral sessions were conducted in operant chambers (28 × 23 × 23 cm^3; Med Associates, Fairfax, VT) with 30 min sessions 5 days/week. […] The number of lever pressing was recorded and the amount of consumed chow was calculated by weighing the remaining food, including spillage. […]

hDAT = target: T1, hDAT (Homo sapiens, UniProt Q01959); experiment: hDAT radioligand binding assay (CHO cells, [3H]BTCP)
T1 construct: expressed in transfected cells
Method: Binding affinity to the hDAT, hNET and hSERT expressed in CHO cells was evaluated in in vitro radioligand binding assays. Binding assays were conducted according to the standard and validated protocols under conditions defined by the contractor (Eurofins Cerep SA, Celle-’Evescault, France; study number 100054410). Antagonist radioligand assays were conducted for the human norepinephrine, the human dopamine, and the serotonin transporters (using CHO cells), using [^3H]nisoxetine (1 nM), [^3H]BTCP (4 nM), and [^3H]imipramine (2 nM) as ligands and desipramine (1 µM), BTCP (10 µM), and imipramine (10 µM) as non-specific agents, respectively (with scintillation counting as detection method).

hNET = target: T2, hNET (Homo sapiens, UniProt P23975); experiment: Uptake inhibition assay in HEK293 cells expressing hNET; format: cell-based
T2 construct: expressed in transfected cells
Method: Human embryonic kidney 293 cells (HEK293 cells) were cultivated in Dulbecco’s Modified Eagle Medium (DMEM), containing 10% heat-inactivated fetal calf serum (FCS; 100 mL/L), streptomycin (100 μg/100 mL) and penicillin ([…]). Geneticin (50 μg/mL) was added to select cells stably expressing the human isoforms of dopamine, norepinephrine and serotonin transporter (hDAT, hNET, and hSERT, respectively) as described earlier. Cell lines were maintained in culture in humidified atmosphere (37 °C, 5% CO2), and passaged when reached 80–90% confluency. Cells expressing the desired transporter were seeded the day before the experiment (40,000 cells per well) or two days before the experiments (20,000 cells per well) onto poly-D-lysine (PDL)-coated 96-well plates.
Uptake inhibition experiments were carried out as reported previously. Ninety-six-well plates containing hDAT-, hNET- or hSERT-expressing cells were washed with Krebs-HEPES buffer (KHB; 25 mM HEPES, 120 mM NaCl, 5 mM KCl, 1.2 mM CaCl2, and 1.2 mM MgSO4 and 5 mM D-glucose, pH = 7.3). Cells were then preincubated with increasing concentrations of the compound diluted in KHB for 6 min. Following the pre-incubation of the cells with the compound, the tritiated substrate (hDAT: 0.15 μM [^3H]DA; hNET: 0.05 μM [^3H]MPP^+; hSERT: 0.1 μM [^3H]5-HT) was added to the wells. The uptake was terminated by removal of tritiated substrate and by washing the cells with ice-cold KHB after 1 min (for hDAT and hSERT) or 3 min (for hNET). Thereafter, 200 μL of Ultima Gold^TM XR scintillation cocktail (PerkinElmer, MA, USA) was added, the plates were shaken and the radioactivity accumulated into the cells determined in a Wal-lac 1450 MicroBeta TriLux Liquid Scintillation Counter & Lumi (GMI, Ramsey, MN, USA). Non- specific tritiated substrate uptake was measured in the presence of 100 μM cocaine (for hDAT and hNET) or 10 μM paroxetine (for hSERT), and subtracted from the data. Uptake in the presence of test drugs was normalized to the uptake in the presence of the vehicle.

T1 sequence (Q01959 whole entry): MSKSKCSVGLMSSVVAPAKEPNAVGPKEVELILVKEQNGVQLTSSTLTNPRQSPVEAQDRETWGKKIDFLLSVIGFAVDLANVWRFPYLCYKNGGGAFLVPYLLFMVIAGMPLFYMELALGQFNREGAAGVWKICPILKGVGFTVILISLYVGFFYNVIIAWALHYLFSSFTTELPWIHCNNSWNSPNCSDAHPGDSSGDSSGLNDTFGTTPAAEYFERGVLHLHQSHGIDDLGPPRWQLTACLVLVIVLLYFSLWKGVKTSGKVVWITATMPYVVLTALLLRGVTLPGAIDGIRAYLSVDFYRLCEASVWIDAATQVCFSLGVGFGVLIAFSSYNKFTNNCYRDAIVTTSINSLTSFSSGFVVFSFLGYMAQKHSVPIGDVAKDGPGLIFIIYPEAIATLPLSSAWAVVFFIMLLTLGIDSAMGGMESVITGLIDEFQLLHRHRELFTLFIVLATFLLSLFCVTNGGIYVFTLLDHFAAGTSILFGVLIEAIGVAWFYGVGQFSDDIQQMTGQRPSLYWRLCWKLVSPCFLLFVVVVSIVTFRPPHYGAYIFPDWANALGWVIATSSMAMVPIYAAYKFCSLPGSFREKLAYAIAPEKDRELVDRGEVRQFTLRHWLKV
T2 sequence (P23975 whole entry): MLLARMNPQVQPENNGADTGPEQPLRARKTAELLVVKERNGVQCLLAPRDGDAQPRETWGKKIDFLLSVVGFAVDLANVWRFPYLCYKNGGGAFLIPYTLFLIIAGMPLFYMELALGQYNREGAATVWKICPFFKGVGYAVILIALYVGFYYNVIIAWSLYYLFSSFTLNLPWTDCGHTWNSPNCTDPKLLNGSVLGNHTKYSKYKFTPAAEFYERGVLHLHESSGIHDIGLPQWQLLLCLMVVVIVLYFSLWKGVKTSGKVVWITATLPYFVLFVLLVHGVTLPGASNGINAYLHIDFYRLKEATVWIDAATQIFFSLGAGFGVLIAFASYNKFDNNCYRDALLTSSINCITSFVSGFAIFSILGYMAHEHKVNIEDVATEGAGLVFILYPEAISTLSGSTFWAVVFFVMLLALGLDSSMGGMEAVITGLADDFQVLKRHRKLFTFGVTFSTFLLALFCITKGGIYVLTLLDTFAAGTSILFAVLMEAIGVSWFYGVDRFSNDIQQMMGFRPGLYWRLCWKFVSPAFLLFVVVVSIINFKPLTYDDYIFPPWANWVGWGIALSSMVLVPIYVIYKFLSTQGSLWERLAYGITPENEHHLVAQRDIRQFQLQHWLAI

Question: Which “effect on PROG lever presses” value ([1]; 45.0 mg/kg i.p. alone vs vehicle, p = 0.011) does the source give for `[O-][S@@+](Cc1cncs1)C(c1cccc(Cl)c1)c1cccc(Cl)c1` [(S)-MK-26, (S)-5-(((B(3-chlorophenyl)methyl)sulphinyl)methyl)thiazole] here?
Answer: statistically significant difference between the vehicle and the highest dose

Question: And the “effect on chow intake” value ([1]; 30.0 and 45.0 mg/kg i.p. alone vs vehicle)?
Answer: decreased chow intake

Question: And the Ki (hDAT)?
Answer: 0.026 µM

Question: What about the IC50 (hNET) of the same molecule?
Answer: 63.5 µM
